Experimental data: PMC7602804 (Nutrients, 2020)
No end group written: not given here.

System: porcine brain endothelial cell (PBEC) monolayers
Assay: Apical to basolateral transport of milk peptides across porcine brain endothelial cell (PBEC) monolayers, blood-brain barrier model
Assay type: in vitro ADME
Conditions: 2.5 h
Experimental: Capillaries were isolated from the brain cortices of domestic pigs 5–6 months old as previously described. PBECs were cultured by plating the capillaries in T75 flasks coated with collagen IV (500 µg/mL) and fibronectin (100 µg/mL) in DMEM-F12 medium, supplemented with 10% plasma-derived serum (First Link, Wolverhampton, UK), heparin (15 U), 100 units/mL of penicillin and 100 µg/mL of streptomycin (PBEC growth medium), and cultured in an incubator with humidified 5% CO2/95% air at 37 °C. Puromycin (4 µg/mL) was added to the growth medium for the first three days to obtain a pure culture of PBECs.
Astrocyte conditioned medium was collected every third day from primary rat astrocytes, sterile filtered and frozen until use. Isolation of primary rat astrocytes and preparation of astrocyte conditioned media were carried out as described in [20].
PBECs were grown until 70–80% confluency as described above and then passaged onto polyester culture inserts with a pore size of 0.4 μm and a growth area of 1.12 cm^2 (Costar, Corning, NY, USA) at a density of 1.1 × 10^5 cells/cm^2 in the PBEC growth medium. In the basolateral chamber, the medium consisted of 1 mL of PBEC growth medium and 0.5 mL of astrocyte conditioned medium. The medium was supplemented with differentiation factors: 550 nM of hydrocortisone, 250 μM of 8-(4-chlorophenylthio)adenosine-3′,5′-cyclic monophosphate (cAMP) and 17.5 μM of RO-201724 two days after seeding. The next day, the integrity of the PBEC monolayer was confirmed by measuring the TEER. Only PBEC monolayers with TEER values higher than 800 Ω cm^2 were used for the transport analysis.
Following the TEER value measurement, the Caco-2 and PBEC monolayers were gently washed twice with phosphate-buffered saline, and the transport medium (Hanks’ Balanced Salt solution supplemented with 10 mM of HEPES) was added to the apical and basolateral compartments. The inserts were incubated for 15 min or 2.5 h with the purified milk peptides (0.1 mg/mL) or the synthetic PIGSENSEKTTMPLW peptide (2 µg/mL), after which medium from the apical and basolateral compartments were collected for liquid chromatography tandem mass spectrometry (LC-MS/MS) analysis. Inserts incubated with a medium without peptides served as the control in the transport experiments. Membrane integrity was validated by addition of D-[1-^14C]-Mannitol (3.5 µM, 56.8 mCi/mmol) (Perkin Elmer, Waltham, MA, USA) to the upper chamber of the culture inserts with or without milk peptides for 2.5 h. The passive permeability experiments were performed on four or five individual culture inserts. Basolateral samples were mixed with Ultima Gold liquid scintillation fluid (Perkin Elmer) and counted in a Tri-Carb 2810 TR scintillation counter (Perkin Elmer). The apparent permeability coefficient (Papp, cm/s) was determined as Papp = (dQ/dt)/(AC0) where dQ/dt is the steady state flux (cpm/s), A is the surface area of the cell culture insert membrane and C0 is the initial concentration in the apical compartment (cpm/mL).
LC-MS/MS analysis was performed on a TripleTOF 6600 mass spectrometer equipped with an Exigent nanoLC 415 system (AB Sciex, Les Ulis, France). All samples were micro-purified using 3 M Empore C18 discs packed in pipette tips. The lyophilized samples were dissolved in 0.1% formic acid, injected on a trap column (2 cm × 100 µm inner diameter) and separated on an analytical column packed in-house in a pulled emitter (15 cm × 75 µm inner diameter). All columns were packed with ReproSil-Pur C18-AQ 3 µm resin (courtesy of Dr. Marisch, Ammerbuch-Entringen, Germany). […]

## PIGSENSEKTTMPLW [PIGSENSEKTTMPLW]
Primary PBEC on polyester inserts 0.4 μm, astrocyte conditioned medium, TEER higher than 800 Ω cm^2, A-B, mix of 192 milk peptides 0.1 mg/mL apical, HBSS + 10 mM HEPES, LC-MS/MS, five independent studies, αS1 peptide 'or' its truncated peptides stated collectively
  Peptide identified in the basal compartment (brain side) of the PBEC BBB model (transported): identified in all experiments
Synthetic peptide 2 µg/mL apical, LC-MS/MS of basal medium
  Fate of synthetic peptide during transport over PBEC monolayers: cleaved by carboxypeptidases during the transport
